Test in all cases: relative viability (nuclei count vs DMSO), 5 days (fraction); higher = more cells survive
For one assay, the system named is IA-LM. In short, it runs like this:
(§1)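 After 5 days of treatment, lung cancer cells in 1536-well plates were fixed and stained in a single step (final 0.05% Triton X-100, 1% formaldehyde, 1 ug/ml Hoechst) and their nuclei counted on 4× images. Treatment had been applied by pin tool the day after seeding as one drug alone or as a fixed anchor-drug dose with five library-drug doses (not always all listed) in √10 steps. Relative viability is the nuclei count of treated wells divided by that of vehicle wells, and values are medians of duplicate plates.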

The subject of another assay is NCI-H1648. In short, it runs like this:
as §1

A further assay deals with NCI-H2009. In short, it runs like this:
as §1

Another assay relates to NCI-H460. In short, it runs like this:
as §1

The subject of the next assay is NCI-H522. In short, it runs like this: as §1
The subject of the next assay is NCI-H661. In short, it runs like this:
as §1

For a further assay, the system named is NCI-H1703. In short, it runs like this:
as §1

On to `NC(=O)Nc1cc(-c2cccc(F)c2)sc1C(=O)N[C@H]1CCCNC1` [AZD7762] + O=C(CCCCCCC(=O)Nc1ccccc1)NO [Vorinostat] (partner 1 µM), for which the relative viability turned out to be 1.04 in the assay with IA-LM (first compound 0.01 µM); 0.984 in the assay on IA-LM (first compound 0.03162 µM); 1.04 in the assay with IA-LM (first compound 0.1 µM); 0.74 with IA-LM (first compound 0.3162 µM); 1.17 in the assay with IA-LM (first compound 1 µM); 0.735 in the assay with NCI-H1648 (first compound 0.01 µM). The relative viability in the assay on NCI-H1648 (first compound 0.03162 µM) was found to be 0.488; in the assay on NCI-H1648 (first compound 0.1 µM) it was 0.45; in the assay on NCI-H1648 (first compound 0.3162 µM), 0.472; in the assay with NCI-H1648 (first compound 1 µM) it was 0.421; with NCI-H2009 (first compound 0.01 µM), 0.794; in the assay on NCI-H2009 (first compound 0.03162 µM), 0.733. Also, the relative viability with NCI-H2009 (first compound 0.1 µM) is 0.693; with NCI-H2009 (first compound 0.3162 µM), 0.688; with NCI-H2009 (first compound 1 µM), 0.625; in the assay on NCI-H460 (first compound 0.01 µM), 0.885; with NCI-H460 (first compound 0.03162 µM) it was 0.63; in the assay with NCI-H460 (first compound 0.1 µM), 0.684. Besides, the relative viability in the assay with NCI-H460 (first compound 0.3162 µM) amounted to 0.216; with NCI-H460 (first compound 1 µM), 0.0532; in the assay on NCI-H522 (first compound 0.01 µM) it was 0.869; in the assay with NCI-H522 (first compound 0.03162 µM), 0.923; with NCI-H522 (first compound 0.1 µM) it was 0.912; in the assay with NCI-H522 (first compound 0.3162 µM) it was 0.624. In addition, the relative viability in the assay on NCI-H522 (first compound 1 µM) was found to be 0.783; in the assay on NCI-H661 (first compound 0.01 µM), 0.929; in the assay on NCI-H661 (first compound 0.03162 µM) it was 0.867; in the assay on NCI-H661 (first compound 0.1 µM) it was 0.98; in the assay on NCI-H661 (first compound 0.3162 µM) it was 0.604; in the assay with NCI-H661 (first compound 1 µM) it was 0.341.
In the case of `O=C(O)c1ccc(-c2c[nH]c3ncc(-c4ccccc4)cc23)cc1C1CCCC1` + NC(=O)Nc1cc(-c2cccc(F)c2)sc1C(=O)N[C@H]1CCCNC1 [AZD7762] (partner 0.2 µM), the relative viability with NCI-H1648 (first compound 0.04 µM) was 0.687; with NCI-H1648 (first compound 0.1265 µM) it was 0.716; in the assay on NCI-H1648 (first compound 0.4 µM), 0.82; in the assay on NCI-H1703 (first compound 0.1265 µM), 0.0651; in the assay with NCI-H1703 (first compound 0.4 µM) it was 0.148; with NCI-H1703 (first compound 1.265 µM), 0.135. For the same compound, the relative viability with NCI-H460 (first compound 0.04 µM) came to 0.625; in the assay with NCI-H460 (first compound 0.1265 µM) it was 0.822; with NCI-H460 (first compound 0.4 µM) it was 0.886; in the assay with NCI-H460 (first compound 1.265 µM), 0.794; in the assay with NCI-H522 (first compound 0.04 µM), 0.662; in the assay on NCI-H522 (first compound 0.1265 µM) it was 0.896. Moreover, the results for the relative viability in the assay on NCI-H522 (first compound 0.4 µM) and with NCI-H522 (first compound 1.265 µM) were 0.785 and 0.882, respectively.
In the case of `CC1(C)CCC(c2ccc(Cl)cc2)=C(CN2CCN(c3ccc(C(=O)NS(=O)(=O)c4ccc(N[C@H](CCN5CCOCC5)CSc5ccccc5)c(S(=O)(=O)C(F)(F)F)c4)cc3)CC2)C1` [Navitoclax] + CC(=O)c1c(C)c2cnc(Nc3ccc(N4CCNCC4)cn3)nc2n(C2CCCC2)c1=O [Palbociclib] (partner 0.5 µM), the relative viability stood at 0.274 with NCI-H1648 (first compound 0.005 µM); 0.269 in the assay on NCI-H1648 (first compound 0.01581 µM); 0.289 in the assay with NCI-H1648 (first compound 0.1581 µM); 0.328 with NCI-H1648 (first compound 0.5 µM); 0.186 in the assay on NCI-H2009 (first compound 0.005 µM); 0.302 with NCI-H2009 (first compound 0.01581 µM). For the same compound, the relative viability in the assay with NCI-H2009 (first compound 0.05 µM) was determined as 0.202; with NCI-H2009 (first compound 0.1581 µM), 0.255; in the assay with NCI-H2009 (first compound 0.5 µM), 0.222; with NCI-H460 (first compound 0.005 µM) it was 0.167; in the assay with NCI-H460 (first compound 0.01581 µM), 0.159; in the assay with NCI-H460 (first compound 0.05 µM), 0.0945. For the same compound, the relative viability with NCI-H460 (first compound 0.1581 µM) was determined as 0.217; in the assay on NCI-H460 (first compound 0.5 µM), 0.13; in the assay with NCI-H522 (first compound 0.005 µM) it was 1.02; in the assay on NCI-H522 (first compound 0.01581 µM), 1.05; with NCI-H522 (first compound 0.05 µM) it was 1.06; in the assay on NCI-H522 (first compound 0.1581 µM) it was 0.735. Further, the relative viability with NCI-H522 (first compound 0.5 µM) worked out at 0.942; in the assay with NCI-H661 (first compound 0.005 µM), 0.426; in the assay with NCI-H661 (first compound 0.01581 µM) it was 0.451; in the assay with NCI-H661 (first compound 0.05 µM), 0.387; with NCI-H661 (first compound 0.1581 µM), 0.435; in the assay on NCI-H661 (first compound 0.5 µM), 0.384.
In the case of `CC1(C)CCC(c2ccc(Cl)cc2)=C(CN2CCN(c3ccc(C(=O)NS(=O)(=O)c4ccc(N[C@H](CCN5CCOCC5)CSc5ccccc5)c(S(=O)(=O)C(F)(F)F)c4)cc3)CC2)C1` [Navitoclax] + Nc1nc2[nH]cc(CCc3ccc(C(=O)N[C@@H](CCC(=O)O)C(=O)O)cc3)c2c(=O)[nH]1 [Pemetrexed] (partner 0.2 µM), the relative viability was determined as 0.868 in the assay with NCI-H1648 (first compound 0.005 µM); 0.747 in the assay with NCI-H1648 (first compound 0.01581 µM); 0.563 with NCI-H1648 (first compound 0.1581 µM); 0.833 with NCI-H1648 (first compound 0.5 µM); 0.997 with NCI-H2009 (first compound 0.005 µM); 1.03 with NCI-H2009 (first compound 0.01581 µM). Further, the relative viability with NCI-H2009 (first compound 0.05 µM) is 1.03; in the assay on NCI-H2009 (first compound 0.1581 µM) it was 1.04; in the assay on NCI-H2009 (first compound 0.5 µM) it was 1.01; in the assay on NCI-H460 (first compound 0.005 µM), 0.0632; in the assay with NCI-H460 (first compound 0.01581 µM), 0.067; in the assay on NCI-H460 (first compound 0.05 µM), 0.0532. The relative viability in the assay with NCI-H460 (first compound 0.1581 µM) came to 0.059; in the assay on NCI-H460 (first compound 0.5 µM), 0.0583; with NCI-H522 (first compound 0.005 µM), 1.07; in the assay with NCI-H522 (first compound 0.01581 µM), 1.28; in the assay on NCI-H522 (first compound 0.05 µM) it was 0.885; in the assay on NCI-H522 (first compound 0.1581 µM) it was 1.11. The relative viability with NCI-H522 (first compound 0.5 µM) was 1.13; in the assay on NCI-H661 (first compound 0.005 µM) it was 0.936; with NCI-H661 (first compound 0.01581 µM), 0.958; in the assay with NCI-H661 (first compound 0.05 µM), 0.9; in the assay on NCI-H661 (first compound 0.1581 µM) it was 0.883; in the assay on NCI-H661 (first compound 0.5 µM), 0.876.

The values are drawn from the supplement of paper PMC10307832.
